From patent US11530210B2, “Substituted heteroaromatic pyrazolo-pyridines and their use as GLUN2B receptor modulators” (JANSSEN PHARMACEUTICA NV, priority 2019, dated 2022)

Biological target: T1, human GluN1/GluN2B NMDA receptors (Homo sapiens, UniProt Q13224)
T1 construct: expressed in transfected cells
Assay: Calcium flux (FLIPR) assay on cloned human NR1/GluN2B ion channels expressed in mammalian cells (standard and HTS variants)
Format: cell-based
Conditions: cells expressing human GluN1/GluN2B, glutamate and glycine co-agonists
Protocol: Effects of Test Articles on Cloned Human NR1/GuN2B Ion Channels Expressed in Mammalian Cells
NMDA receptors are ion channels that are highly permeable to Ca^2+ ions, rendering it possible to monitor NMDA receptor function using cell-based calcium flux assay. In this assay, co-agonists glutamate and glycine are added to cells heterologously expressing human GluN1/GluN2B NMDA receptors to initiate cellular Ca^2+ influx. The time course of the changes in intracellular calcium is measured using a fluorescent dye and a FLIPR (Fluorometric Imaging Plate Reader) device.
Twenty-four hours before measurements, the expression of the NMDA receptors in the stable cell line is induced with Tet-On inducible system in the presence of a non-selective NMDA receptor blocker. On the day of the experiment, cell culture media is carefully washed, and the cells are loaded with Calcium 5 Dye Kit (Molecular Devices) in dye loading buffer containing 137 mM NaCl, 4 mM KCl, 2 mM CaCl2, 0.5 mM MgCl2 (standard assay) or 1.5 mM MgCl2 (HTS assay), 10 mM HEPES and 5 mM D-glucose; pH 7.4. After 1 h incubation at the room temperature, the dye is washed away with the assay buffer (137 mM NaCl (standard assay) or 150 mM (HTS assay), 4 mM KCl (standard assay) or 3 mM (HTS assay), 2 mM CaCl2), 0.01 mM EDTA, 10 mM HEPES and 5 mM D-glucose; pH 7.4) In the FLIPR TETRA reader, various concentrations of the test compounds are added to the cells for 5 min while fluorescence is monitored to detect potential agonist activity. Next, co-agonists, glutamate and glycine are added for another 5 minutes. The concentration of glutamate corresponding to ˜EC40 (standard assay) or EC40 (HTS assay) is used to maximize the assay's signal window and ability to detect NMDA receptor antagonists and negative allosteric modulators. A saturating concentration (10 μM) of glycine is also present in the assay. A non-selective NMDA receptor antagonist, (+)MK-801 is used as a positive control for antagonist activity. The fluorescent signal in the presence of test compounds is quantified and normalized to the signal defined by the appropriate control wells.

T1 sequence (Q13224 27-1484, other chains not shown): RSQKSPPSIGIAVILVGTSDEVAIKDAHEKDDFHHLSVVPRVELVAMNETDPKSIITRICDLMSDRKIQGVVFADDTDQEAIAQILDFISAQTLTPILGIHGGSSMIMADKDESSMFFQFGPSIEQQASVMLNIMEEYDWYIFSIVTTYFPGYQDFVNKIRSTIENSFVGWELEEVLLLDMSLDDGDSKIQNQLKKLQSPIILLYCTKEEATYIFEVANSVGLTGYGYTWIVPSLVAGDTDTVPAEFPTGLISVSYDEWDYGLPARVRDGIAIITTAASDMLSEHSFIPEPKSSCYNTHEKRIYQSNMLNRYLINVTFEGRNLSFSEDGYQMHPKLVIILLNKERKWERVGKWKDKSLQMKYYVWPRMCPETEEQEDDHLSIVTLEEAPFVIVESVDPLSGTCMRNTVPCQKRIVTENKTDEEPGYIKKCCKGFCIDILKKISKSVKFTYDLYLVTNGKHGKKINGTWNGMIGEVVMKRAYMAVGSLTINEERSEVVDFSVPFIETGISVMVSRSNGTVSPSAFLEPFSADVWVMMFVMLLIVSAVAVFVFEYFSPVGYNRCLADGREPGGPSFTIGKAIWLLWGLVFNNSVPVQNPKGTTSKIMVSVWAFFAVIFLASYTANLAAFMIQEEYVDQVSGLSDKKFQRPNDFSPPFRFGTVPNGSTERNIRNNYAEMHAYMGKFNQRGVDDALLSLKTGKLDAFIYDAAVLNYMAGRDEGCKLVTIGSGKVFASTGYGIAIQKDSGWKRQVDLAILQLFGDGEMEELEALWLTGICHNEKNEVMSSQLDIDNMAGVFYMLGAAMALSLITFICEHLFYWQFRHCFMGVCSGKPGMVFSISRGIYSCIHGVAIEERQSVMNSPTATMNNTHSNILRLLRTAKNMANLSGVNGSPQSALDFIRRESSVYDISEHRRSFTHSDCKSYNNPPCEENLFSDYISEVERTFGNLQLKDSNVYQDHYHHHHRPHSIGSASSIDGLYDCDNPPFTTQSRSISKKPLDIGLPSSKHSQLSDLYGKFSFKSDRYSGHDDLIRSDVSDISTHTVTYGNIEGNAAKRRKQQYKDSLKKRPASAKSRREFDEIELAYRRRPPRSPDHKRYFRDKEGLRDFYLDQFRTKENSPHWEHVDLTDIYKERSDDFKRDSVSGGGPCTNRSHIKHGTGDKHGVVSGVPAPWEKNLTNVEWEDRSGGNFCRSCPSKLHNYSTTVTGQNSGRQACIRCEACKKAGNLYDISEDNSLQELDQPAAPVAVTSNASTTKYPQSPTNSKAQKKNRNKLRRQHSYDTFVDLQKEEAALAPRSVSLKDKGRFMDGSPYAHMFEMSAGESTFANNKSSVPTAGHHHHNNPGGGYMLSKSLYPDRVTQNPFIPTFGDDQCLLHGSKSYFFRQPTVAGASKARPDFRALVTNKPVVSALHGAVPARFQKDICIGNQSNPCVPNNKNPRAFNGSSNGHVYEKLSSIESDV

Q: Cc1ccc(Cn2ncc3ncc(-c4ccc(F)c(C(F)F)c4)cc32)s1 [Example 32, 6-[3-(Difluoromethyl)-4-fluoro-phenyl]-1-[(5-methyl-2-thienyl)methyl]pyrazolo[4,3-b]pyridine] was tested. Which IC50 did it give?
A: > 2990 nM

Q: Fc1ccc(Cn2ncc3ncc(-c4ccc(F)c(C(F)F)c4)cc32)s1 [Example 33, 6-(3-(Difluoromethyl)-4-fluorophenyl)-1-((5-fluorothiophen-2-yl)methyl)-1H-pyrazolo[4,3-b]pyridine] was tested. Which IC50 did it give?
A: 1030 nM

Q: With N#Cc1ccc(Cn2ncc3ncc(-c4ccc(F)c(C(F)F)c4)cc32)s1 [Example 34, 5-((6-(3-(Difluoromethyl)-4-fluorophenyl)-1H-pyrazolo[4,3-b]pyridin-1-yl)methyl)thiophene-2-carbonitrile] as the molecule, how does the IC50 read?
A: 353 nM

Q: For CC(F)(F)c1cccc(-c2cnc3cnn(Cc4cn[nH]c4)c3c2)c1 [Example 35, 6-[3-(1,1-Difluoroethyl)phenyl]-1-(1H-pyrazol-4-ylmethyl)pyrazolo[4,3-b]pyridine], which IC50 is on record?
A: 648 nM

Q: With Cn1cnc(Cn2ncc3ncc(-c4cccc(C(F)(F)F)c4)cc32)c1 [Example 36, 1-[(1-Methylimidazol-4-yl)methyl]-6-[3-(trifluoromethyl)phenyl]pyrazolo[4,3-b]pyridine] as the molecule, how does the IC50 read?
A: 668 nM

Q: For Cc1cc(Cn2ncc3ncc(-c4cccc(C(F)(F)F)c4)cc32)n(C)n1 [Example 37, 1-[(2,5-Dimethylpyrazol-3-yl)methyl]-6-[3-(trifluoromethyl)phenyl]pyrazolo[4,3-b]pyridine], which IC50 is on record?
A: 3950 nM

Q: For Fc1ccc(-c2cnc3cnn(Cc4cn[nH]c4)c3c2)cc1C(F)F [Example 38, 6-[3-(Difluoromethyl)-4-fluoro-phenyl]-1-(1H-pyrazol-4-ylmethyl)pyrazolo[4,3-b]pyridine], which IC50 is on record?
A: 226 nM

Q: Which IC50 does the source give for Cn1ccc(Cn2ncc3ncc(-c4ccc(F)c(C(F)F)c4)cc32)n1 [Example 39, 6-[3-(Difluoromethyl)-4-fluoro-phenyl]-1-[(1-methylpyrazol-3-yl)methyl]pyrazolo[4,3-b]pyridine] here?
A: 271 nM

Q: Which IC50 does the source give for FC(F)Oc1cc(-c2cnc3cnn(Cc4cn[nH]c4)c3c2)ccc1Cl [Example 41, 6-[4-Chloro-3-(difluoromethoxy)phenyl]-1-(1H-pyrazol-4-ylmethyl)pyrazolo[4,3-b]pyridine] here?
A: 423 nM

Q: Which IC50 does the source give for Cc1cc(Cn2ncc3ncc(-c4ccc(F)cc4)cc32)on1 [Example 42, 5-[[6-(4-Fluorophenyl)pyrazolo[4,3-b]pyridin-1-yl]methyl]-3-methyl-isoxazole] here?
A: 475 nM

Q: With Cc1cc(Cn2ncc3ncc(-c4ccc(F)cc4)cc32)no1 [Example 43, 3-[[6-(4-Fluorophenyl)pyrazolo[4,3-b]pyridin-1-yl]methyl]-5-methyl-isoxazole] as the molecule, how does the IC50 read?
A: 139 nM

Q: With FC(F)(F)c1cccc(-c2cnc3cnn(Cc4ccon4)c3c2)c1 [Example 44, 3-[[6-[3-(Trifluoromethyl)phenyl]pyrazolo[4,3-b]pyridin-1-yl]methyl]isoxazole] as the molecule, how does the IC50 read?
A: 165 nM

Q: Which IC50 does the source give for Cc1cc(Cn2ncc3ncc(-c4cccc(C(C)(F)F)c4)cc32)no1 [Example 45, 3-[[6-[3-(1,1-Difluoroethyl)phenyl]pyrazolo[4,3-b]pyridin-1-yl]methyl]-5-methyl-isoxazole] here?
A: 44 nM

Q: FC(F)(F)c1cccc(-c2cnc3cnn(Cc4cocn4)c3c2)c1 [Example 46, 4-[[6-[3-(Trifluoromethyl)phenyl]pyrazolo[4,3-b]pyridin-1-yl]methyl]oxazole] was tested. Which IC50 did it give?
A: 538 nM

Q: For Cc1cc(Cn2ncc3ncc(-c4cccc(C(F)(F)F)c4)cc32)no1 [Example 47, 5-Methyl-3-[[6-[3-(trifluoromethyl)phenyl]pyrazolo[4,3-b]pyridin-1-yl]methyl]isoxazole], which IC50 is on record?
A: 148 nM

Q: Cc1ncc(Cn2ncc3ncc(-c4ccc(F)c(C)c4)cc32)o1 [Example 48, 5-[[6-(4-Fluoro-3-methyl-phenyl)pyrazolo[4,3-b]pyridin-1-yl]methyl]-2-methyl-oxazole] was tested. Which IC50 did it give?
A: 113 nM

Q: How did the IC50 turn out when Cc1cnc(Cn2ncc3ncc(-c4ccc(F)c(C)c4)cc32)o1 [Example 49, 2-[[6-(4-Fluoro-3-methyl-phenyl)pyrazolo[4,3-b]pyridin-1-yl]methyl]-5-methyl-oxazole] was run?
A: 53 nM

Q: How did the IC50 turn out when Fc1ccc(-c2cnc3cnn(Cc4ccno4)c3c2)cc1C(F)F [Example 50, 5-[[6-[3-(Difluoromethyl)-4-fluoro-phenyl]pyrazolo[4,3-b]pyridin-1-yl]methyl]isoxazole] was run?
A: 31 nM

Q: With Fc1ccc(-c2cnc3cnn(Cc4ccon4)c3c2)cc1C(F)F [Example 51, 3-[[6-[3-(Difluoromethyl)-4-fluoro-phenyl]pyrazolo[4,3-b]pyridin-1-yl]methyl]isoxazole] as the molecule, how does the IC50 read?
A: 23 nM

Q: For Cc1cc(Cn2ncc3ncc(-c4ccc(F)c(C(F)F)c4)cc32)no1 [Example 53, 3-[[6-[3-(Difluoromethyl)-4-fluoro-phenyl]pyrazolo[4,3-b]pyridin-1-yl]methyl]-5-methyl-isoxazole], which IC50 is on record?
A: 18 nM

Q: For Cc1ncc(Cn2ncc3ncc(-c4ccc(F)c(C(F)F)c4)cc32)o1 [Example 54, 5-[[6-[3-(Difluoromethyl)-4-fluoro-phenyl]pyrazolo[4,3-b]pyridin-1-yl]methyl]-2-methyl-oxazole], which IC50 is on record?
A: 133 nM

Q: Cc1nc(Cn2ncc3ncc(-c4ccc(F)c(C(F)F)c4)cc32)co1 [Example 55, 4-[[6-[3-(Difluoromethyl)-4-fluoro-phenyl]pyrazolo[4,3-b]pyridin-1-yl]methyl]-2-methyl-oxazole] was tested. Which IC50 did it give?
A: 285 nM

Q: How did the IC50 turn out when Cc1noc(C)c1Cn1ncc2ncc(-c3ccc(F)c(C(F)F)c3)cc21 [Example 57, 4-[[6-[3-(Difluoromethyl)-4-fluoro-phenyl]pyrazolo[4,3-b]pyridin-1-yl]methyl]-3,5-dimethyl-isoxazole] was run?
A: 82 nM

Q: With Cc1cc(Cn2ncc3ncc(-c4ccc(F)c(C(C)(F)F)c4)cc32)no1 [Example 58, 3-[[6-[3-(1,1-Difluoroethyl)-4-fluoro-phenyl]pyrazolo[4,3-b]pyridin-1-yl]methyl]-5-methyl-isoxazole] as the molecule, how does the IC50 read?
A: 158 nM

Q: Which IC50 does the source give for Cc1cc(Cn2ncc3ncc(-c4ccc(F)c(OC(F)F)c4)cc32)no1 [Example 59, 3-[[6-[3-(Difluoromethoxy)-4-fluoro-phenyl]pyrazolo[4,3-b]pyridin-1-yl]methyl]-5-methyl-isoxazole] here?
A: 61 nM

Q: Which IC50 does the source give for Cc1ncc(Cn2ncc3ncc(-c4ccc(F)c(OC(F)F)c4)cc32)o1 [Example 60, 5-[[6-[3-(Difluoromethoxy)-4-fluoro-phenyl]pyrazolo[4,3-b]pyridin-1-yl]methyl]-2-methyl-oxazole] here?
A: 559 nM

Q: Which IC50 does the source give for Cc1cnc(Cn2ncc3ncc(-c4ccc(F)c(OC(F)F)c4)cc32)o1 [Example 61, 2-[[6-[3-(Difluoromethoxy)-4-fluoro-phenyl]pyrazolo[4,3-b]pyridin-1-yl]methyl]-5-methyl-oxazole] here?
A: 160 nM

Q: For Cc1cc(Cn2ncc3ncc(-c4ccc(Cl)c(OC(F)F)c4)cc32)no1 [Example 62, 3-[[6-[4-Chloro-3-(difluoromethoxy)phenyl]pyrazolo[4,3-b]pyridin-1-yl]methyl]-5-methyl-isoxazole], which IC50 is on record?
A: 159 nM

Q: Which IC50 does the source give for Cc1ncc(Cn2ncc3ncc(-c4ccc(F)c(C)c4F)cc32)o1 [Example 63, 5-[[6-(2,4-Difluoro-3-methyl-phenyl)pyrazolo[4,3-b]pyridin-1-yl]methyl]-2-methyl-oxazole] here?
A: 268 nM

Q: For Cc1cc(Cn2ncc3ncc(-c4cccc(C(F)(F)F)c4)cc32)ns1 [Example 64, 5-Methyl-3-[[6-[3-(trifluoromethyl)phenyl]pyrazolo[4,3-b]pyridin-1-yl]methyl]isothiazole], which IC50 is on record?
A: 2240 nM

Q: Cc1cnc(Cn2ncc3ncc(-c4ccc(F)c(C(F)F)c4)cc32)s1 [Example 65, 2-[[6-[3-(Difluoromethyl)-4-fluoro-phenyl]pyrazolo[4,3-b]pyridin-1-yl]methyl]-5-methyl-thiazole] was tested. Which IC50 did it give?
A: 84 nM

Q: With Cc1csc(Cn2ncc3ncc(-c4ccc(F)c(C(F)F)c4)cc32)n1 [Example 66, 2-[[6-[3-(Difluoromethyl)-4-fluoro-phenyl]pyrazolo[4,3-b]pyridin-1-yl]methyl]-4-methyl-thiazole] as the molecule, how does the IC50 read?
A: 410 nM

Q: With Cc1nc(Cn2ncc3ncc(-c4ccc(F)c(C(F)F)c4)cc32)cs1 [Example 67, 4-[[6-[3-(Difluoromethyl)-4-fluoro-phenyl]pyrazolo[4,3-b]pyridin-1-yl]methyl]-2-methyl-thiazole] as the molecule, how does the IC50 read?
A: 466 nM

Q: How did the IC50 turn out when Cc1cnc(Cn2ncc3ncc(-c4ccc(F)c(C)c4)cc32)s1 [Example 68, 2-[[6-(4-Fluoro-3-methyl-phenyl)pyrazolo[4,3-b]pyridin-1-yl]methyl]-5-methyl-thiazole] was run?
A: 265 nM

Q: Which IC50 does the source give for Cc1cnc(Cn2ncc3ncc(-c4ccc(F)c(OC(F)F)c4)cc32)s1 [Example 69, 2-[[6-[3-(Difluoromethoxy)-4-fluoro-phenyl]pyrazolo[4,3-b]pyridin-1-yl]methyl]-5-methyl-thiazole] here?
A: 104 nM
